Values of other authors as cited in US6689400B2, “Process of obtaining compositions of stable lutein and lutein derivatives” (Sabinsa Corporation, priority 2001, dated 2004).

Columns and labels:
[1] = room temperature or higher
[2] = exposure to white fluorescent light, carefully controlled conditions

stability [1]: not stable
degradation of lutein [2]: 0.8-10.7 % per day
Compound: CC1=C[C@H](O)CC(C)(C)[C@H]1/C=C/C(C)=C/C=C/C(C)=C/C=C/C=C(C)/C=C/C=C(C)/C=C/C1=C(C)C[C@@H](O)CC1(C)C [lutein]
